Experimental data as given in ChEMBL document CHEMBL5150075 (J Med Chem, 2022).
Calls of active or inactive are those of the source. No cut-off for these calls is given here.

What was measured:
DU-145 [1] = assay: Antiproliferative activity against human DU-145 cells assessed as inhibition of cell growth incubated for 72 hrs by MTT assay; assay type: functional, cell-based; conditions: DU-145, 72 h
DU-145 [2] = assay: Induction of apoptosis in human DU-145 cells assessed as late apoptotic cells at 0.03 uM incubated for 48 hrs by Annexin V-FITC/PI staining based flow cytometry analysis (reference value: 2.05%); assay type: functional
DU-145 [3] = assay: Induction of apoptosis in human DU-145 cells assessed as late apoptotic cells at 0.1 uM incubated for 48 hrs by Annexin V-FITC/PI staining based flow cytometry analysis (reference value: 2.05%); assay type: functional
DU-145 [4] = assay: Induction of apoptosis in human DU-145 cells assessed as late apoptotic cells at 0.3 uM incubated for 48 hrs by Annexin V-FITC/PI staining based flow cytometry analysis (reference value: 2.05%); assay type: functional
DU-145 [5] = assay: Induction of apoptosis in human DU-145 cells assessed as dead cells at 0.3 uM incubated for 48 hrs by Annexin V-FITC/PI staining based flow cytometry analysis (reference value: 1.05%); assay type: functional
DU-145 [6] = assay: Induction of apoptosis in human DU-145 cells assessed as increase in cleaved caspase 3 level at 0.003 to 0.3 uM incubated for 48 hrs by Western blot analysis; assay type: functional, cell-based; conditions: dose 0.003-0.3 µM
BGC-823 = assay: Antiproliferative activity against human BGC-823 cells assessed as inhibition of cell growth incubated for 72 hrs by MTT assay; assay type: functional, cell-based; conditions: BGC-823, 72 h
[7] = Toxicity in specific pathogen-free Kunming mouse assessed as reduction in body weight at 10 mg/kg, po administered once daily and measured for 7 days; assay type: organism-based; conditions: in vivo, 168 h, time 7 day

## Cc1ccc(S(=O)(=O)Nc2cc(C(=O)NCc3ccc(C)nc3)ccc2C)cc1
DU-145 [1]
  IC50: 8 nM
DU-145 [2]
  Activity: 9.5%
DU-145 [3]
  Activity: 26.61%
DU-145 [4]
  Activity: 30.32%
DU-145 [5]
  Activity: 5.51%
DU-145 [6]
  Activity: Active
BGC-823
  IC50: 21 nM
[7]
  Activity: Non-Toxic
